One data set addresses T1, HsCOASY (Homo sapiens, UniProt Q13057).
T1 construct: His tag (pCold1 vector); made in house; host or cells: Escherichia coli BL21Star (DE3)
T1 sequence (Q13057 1-564): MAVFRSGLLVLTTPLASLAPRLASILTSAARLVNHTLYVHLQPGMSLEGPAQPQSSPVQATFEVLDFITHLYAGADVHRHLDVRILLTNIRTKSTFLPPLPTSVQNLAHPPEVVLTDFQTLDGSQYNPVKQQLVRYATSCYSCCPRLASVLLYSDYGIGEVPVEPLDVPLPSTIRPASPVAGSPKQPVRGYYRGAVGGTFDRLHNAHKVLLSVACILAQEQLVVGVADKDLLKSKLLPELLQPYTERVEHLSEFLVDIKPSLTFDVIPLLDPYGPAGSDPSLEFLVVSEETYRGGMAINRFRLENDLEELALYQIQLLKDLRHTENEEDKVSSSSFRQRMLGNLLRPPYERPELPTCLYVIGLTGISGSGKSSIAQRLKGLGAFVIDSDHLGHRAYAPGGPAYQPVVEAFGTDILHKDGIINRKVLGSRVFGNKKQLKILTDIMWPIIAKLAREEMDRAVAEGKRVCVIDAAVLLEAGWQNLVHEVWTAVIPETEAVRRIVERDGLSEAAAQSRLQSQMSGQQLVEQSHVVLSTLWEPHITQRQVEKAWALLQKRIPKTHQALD
Nature of the data set: Kinetic analysis of recombinant HsCOASY (ADP Hunter Plus). It is filed as biochemical. The conditions noted are these: substrate of HsCOASY. The method, then: (§1) PfDPCK and HsCOASY activity was measured by quantifying ADP produced in the reaction by a coupling assay using the ADP Hunter Plus assay kit (DiscoverX, USA) according to the manufacturer's instructions. Briefly, enzymatic reactions were carried out in a 20-μL mixture of assay buffer containing 15 mM HEPES, 20 mM NaCl, 1 mM EGTA, 0.02% Tween 20, 10 mM MgCl2, 0.1% bovine gamma globulin, 50 ng of recombinant PfDPCK or HsCOASY, 4 to 256 μM dephospho-CoA, and 5 to 300 μM ATP on a black microplate. All reactions were performed for 2 h, reagents A and B were added, and they were then reincubated for 60 min at 30°C. After reactions were terminated by addition of ADP Hunter Stop solution, the fluorescent signal was measured using SpectraMax Paradigm (Molecular Devices, CA, USA) at excitation and emission wavelengths of 530 and 590 nm, respectively. The kinetic parameters were calculated using the nonlinear regression function using the single saturating concentrations of the substrates by the GraphPad Prism software (GraphPad Software Inc., San Diego, CA). The experiments were repeated three times in triplicate using proteins purified from independent cultures. Kinetic values of enzymes are presented as the means ± standard errors (SEs).

Another data set concerns the target PfDPCK (Plasmodium falciparum, UniProt Q8IL34). Nature of the data set: Kinetic analysis of recombinant PfDPCK (ADP Hunter Plus). It is filed as biochemical. The conditions noted are these: substrate of PfDPCK. The method, then: as §1
Substrate in data set [1]: CC(C)(COP(=O)(O)OP(=O)(O)OCC1OC(n2cnc3c(N)ncnc32)C(O)C1O)C(O)C(=O)NCCC(=O)NCCS
Nature of the data set: Kinetic analysis of recombinant HsCOASY (ADP Hunter Plus). It is filed as biochemical, human. Particulars: other: substrate of HsCOASY; 30.0 °C. As to the method:
as §1

Sequence of PfDPCK (Q8IL34 entry or part of it): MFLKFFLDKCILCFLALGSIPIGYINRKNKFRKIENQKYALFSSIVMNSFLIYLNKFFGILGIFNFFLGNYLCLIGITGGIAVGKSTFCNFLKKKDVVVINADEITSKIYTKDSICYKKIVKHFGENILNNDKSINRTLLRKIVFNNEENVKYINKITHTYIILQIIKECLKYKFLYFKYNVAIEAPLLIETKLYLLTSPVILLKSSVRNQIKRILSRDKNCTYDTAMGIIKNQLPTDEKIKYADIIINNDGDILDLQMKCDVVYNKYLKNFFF

The term Km denotes the substrate concentration at which the rate is half of its maximum. Take `Nc1ncnc2c1ncn2[C@@H]1O[C@H](COP(=O)(O)OP(=O)(O)OP(=O)(O)O)[C@@H](O)[C@H]1O` [ATP]: the Km turned out to be 115 ± 13.1 µM on HsCOASY and 88.1 ± 11 µM on PfDPCK.

B1: HsCOASY (Homo sapiens) (protein)
chain: MAVFRSGLLVLTTPLASLAPRLASILTSAARLVNHTLYVHLQPGMSLEGPAQPQSSPVQATFEVLDFITHLYAGADVHRHLDVRILLTNIRTKSTFLPPLPTSVQNLAHPPEVVLTDFQTLDGSQYNPVKQQLVRYATSCYSCCPRLASVLLYSDYGIGEVPVEPLDVPLPSTIRPASPVAGSPKQPVRGYYRGAVGGTFDRLHNAHKVLLSVACILAQEQLVVGVADKDLLKSKLLPELLQPYTERVEHLSEFLVDIKPSLTFDVIPLLDPYGPAGSDPSLEFLVVSEETYRGGMAINRFRLENDLEELALYQIQLLKDLRHTENEEDKVSSSSFRQRMLGNLLRPPYERPELPTCLYVIGLTGISGSGKSSIAQRLKGLGAFVIDSDHLGHRAYAPGGPAYQPVVEAFGTDILHKDGIINRKVLGSRVFGNKKQLKILTDIMWPIIAKLAREEMDRAVAEGKRVCVIDAAVLLEAGWQNLVHEVWTAVIPETEAVRRIVERDGLSEAAAQSRLQSQMSGQQLVEQSHVVLSTLWEPHITQRQVEKAWALLQKRIPKTHQALD
notes: His tag (pCold1 vector); made in house; host or cells: Escherichia coli BL21Star (DE3)
For B1, the Michaelis constant (Km) in data set [1] was determined as 85.35 ± 13.4 µM.

The values are drawn from publication PMC9664868, “Dephospho-Coenzyme A Kinase Is an Exploitable Drug Target against Plasmodium falciparum: Identification of Selective Inhibitors by High-Throughput Screening of a Large Chemical Compound Library” (Antimicrobial Agents and Chemotherapy, 2022).
